Test results from ChEMBL document CHEMBL5149970 (J Med Chem, 2021).

Assay: Antiproliferative activity against human EU-1 cells assessed as inhibition of cell growth incubated for 48 hrs by WST assay
Type: functional, cell-based
Details: EU-1, 48 h

Row | Structure (SMILES) | IC50 [µM]
1 | Cc1ccc(N(C)S(=O)(=O)c2ccc3c(c2)C2OCCC2C(c2ccc(C(=O)C(C)C)cc2)N3C)cc1C (configuration not stated) | 1.2
2 | Cc1ccc(NS(=O)(=O)c2ccc3c(c2)C2OCCC2C(c2ccc(C(O)C(C)C)cc2)N3)cc1C (configuration not stated) | 2
3 | Cc1ccc(NS(=O)(=O)c2ccc3c(c2)C2c4ccccc4CC2C(c2ccc(C(=O)O)cc2)N3)cc1C (configuration not stated) | 20.5
4 | Cc1ccc(NS(=O)(=O)c2ccc3c(c2)C2CCCC2C(c2ccc(C(=O)C(C)C)cc2)N3)cc1C (configuration not stated) | 7
5 | Cc1ccc(NS(=O)(=O)c2ccc3c(c2)C2OCCC2C(c2cccc(C(=O)C(C)C)c2)N3)cc1C (configuration not stated) | 3.6
6 | Cc1ccc(NS(=O)(=O)c2ccc3c(c2)C2OCCC2C(c2ccc(C(=O)C4CC4)cc2)N3)cc1C (configuration not stated) | 5.2
7 | Cc1ccc(NS(=O)(=O)c2ccc3c(c2)C2OCCC2C(c2ccc(C(=O)C4CCCCC4)cc2)N3)cc1C (configuration not stated) | 3.1
8 | COC(=O)c1ccc(C2Nc3cc(Cl)c(S(=O)(=O)Nc4ccc(C)c(C)c4)cc3C3OCCC23)cc1 (configuration not stated) | > 50
9 | Cc1ccc(NS(=O)(=O)c2ccc3c(c2Cl)C2C=CCC2C(c2ccc(S(C)(=O)=O)cc2)N3)cc1C (configuration not stated) | 23.4
10 | Cc1ccc(NS(=O)(=O)c2ccc3c(c2)[C@@H]2OCC[C@@H]2[C@@H](c2ccc(C(=O)C(C)C)cc2)N3)cc1C | 1.9
11 | Cc1ccc(NS(=O)(=O)c2ccc3c(c2)[C@H]2OCC[C@H]2[C@H](c2ccc(C(=O)C(C)C)cc2)N3)cc1C | 2.4
12 | Cc1ccc(NS(=O)(=O)c2ccc3c(c2)C2OCCC2C(c2ccc(S(C)(=O)=O)cc2)N3)cc1C (configuration not stated) | 4.1
13 | CC(C)C(=O)c1ccc(C2Nc3ccc(S(=O)(=O)Nc4ccc(Cl)c(Cl)c4)cc3C3OCCC23)cc1 (configuration not stated) | 5.6
14 | Cc1cc(NS(=O)(=O)c2ccc3c(c2)C2OCCC2C(c2ccc(C(=O)C(C)C)cc2)N3)ccc1C(F)(F)F (configuration not stated) | 7.2
15 | Cc1ccc(NS(=O)(=O)c2ccc3c(c2)C2OCCC2C(c2cccc4ccccc24)N3)cc1C (configuration not stated) | 6.1
16 | CCCC(=O)c1ccc(C2Nc3ccc(S(=O)(=O)Nc4ccc(C)c(C)c4)cc3C3OCCC23)cc1 (configuration not stated) | 2.9

Row | Structure (SMILES) | IC50 [µM]
17 | Cc1ccc(NS(=O)(=O)c2ccc3c(c2)C2NCCC2C(c2ccc(C(=O)C(C)C)cc2)N3)cc1C (configuration not stated) | 3.8
18 | Cc1cc(NS(=O)(=O)c2ccc3c(c2)C2OCCC2C(c2ccc(C(=O)C(C)C)cc2)N3)ccc1Cl (configuration not stated) | 6.3
19 | CC(C)C(=O)c1ccc(C2Nc3ccc(S(=O)(=O)Nc4ccc(Br)c(Br)c4)cc3C3OCCC23)cc1 (configuration not stated) | 5.2
20 | Cc1ccc(NS(=O)(=O)c2ccc3c(c2)C2C=CCC2C(c2ccc(C(=O)C(C)C)cc2)N3)cc1C (configuration not stated) | 2.7
21 | Cc1ccc(NS(=O)(=O)c2cc3c(cc2Cl)NC(c2ccc(S(C)(=O)=O)cc2)C2CC=CC32)cc1C (configuration not stated) | > 50
22 | COC(=O)c1ccc(C2Nc3ccc(S(=O)(=O)Nc4ccc(C)c(C)c4)cc3C3c4ccccc4CC23)cc1 (configuration not stated) | 18.3
23 | Cc1ccc(NS(=O)(=O)c2ccc3c(c2)C2C=CCC2C(c2ccc(S(C)(=O)=O)cc2)N3)cc1C (configuration not stated) | 6.2
24 | COC(=O)c1ccc(C2Nc3ccc(S(=O)(=O)Nc4ccc(C)c(C)c4)cc3C3OCCC23)cc1 (configuration not stated) | 2.2
25 | Cc1ccc(NS(=O)(=O)c2ccc3c(c2)C2OCCC2C(c2ccc(C(=O)C(C)C)cc2)N3)cc1Cl (configuration not stated) | 1.6
26 | COC(=O)c1ccc(C2Nc3ccc(S(=O)(=O)Nc4ccc(C)c(C)c4)cc3C3OCCCC23)cc1 (configuration not stated) | 4.6
27 | Cc1ccc(N(C)S(=O)(=O)c2ccc3c(c2)C2OCCC2C(c2ccc(C(=O)C(C)C)cc2)N3)cc1C (configuration not stated) | 1.6
28 | CC(=O)c1ccc(C2Nc3ccc(S(=O)(=O)Nc4ccc(C)c(C)c4)cc3C3OCCC23)cc1 (configuration not stated) | 0.5
29 | Cc1ccc(NS(=O)(=O)c2ccc3c(c2)[C@@H]2OCC[C@@H]2[C@H](c2ccc(C(=O)C(C)C)cc2)N3)cc1C | 1.6
30 | Cc1ccc(NS(=O)(=O)c2ccc3c(c2)C2OCCC2C(c2ccc(C(C)C)cc2)N3)cc1C (configuration not stated) | 4.2
31 | COC(=O)c1ccc(C2Nc3ccc(S(=O)(=O)Nc4ccc(C)c(C)c4)cc3C3C=CCC32)cc1 (configuration not stated) | 4.7
32 | Cc1ccc(NS(=O)(=O)c2ccc3c(c2)C2OCCC2C(c2ccc(C(=O)c4ccccc4)cc2)N3)cc1C (configuration not stated) | 3.2
